Results from the supplement of paper PMC10627819.

Columns and labels:
[1] = tested on: B. subtilis 168; assay: Bliss interaction score (quartile over a dose matrix) (fitness difference); higher = more antagonism (negative = synergy)
Procedure, shortened: (§1)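 Fitness was derived from optical density at entry into stationary phase, divided by the robust mean of the no-drug wells on the same plate. That reading was taken as OD595, and the ratio was capped at 1. Single-drug fitness was inferred from the combination data. The Bliss score, observed fitness minus the expected product of single-drug fitness, was summarised as quartiles over technical, biological and donor/recipient replicates.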

[2] = tested on: S. aureus DSM 20231; assay: as above
Procedure, shortened: as §1

[3] = tested on: S. pneumoniae D39V; assay: as above
Procedure, shortened: as §1

[4] = tested on: S. aureus Newman; assay: as above
Procedure, shortened: as §1

[5] = tested on: B. subtilis 168; assay: fitness (endpoint OD595 vs no drug) (fraction); higher = more growth
Procedure, shortened: (§2)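 Growth medium was TSB, LB Lennox or CY, and plates were kept at 37 °C. Inoculation was at OD595 0.01 in 384-well plates, at 30 µl per well or 55 µl for S. pneumoniae. OD595 was monitored every 30 min for 14 h and background-subtracted using the first reading. Fitness is the optical density on entering stationary phase divided by the robust mean of no-drug controls, with values capped at 1.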

[6] = tested on: S. aureus DSM 20231; assay: as above
Procedure, shortened: as §2

[7] = tested on: S. pneumoniae D39V; assay: as above
Procedure, shortened: as §2

[8] = tested on: S. aureus Newman; assay: as above
Procedure, shortened: as §2
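For Bliss interaction score (quartile over a dose matrix) in this document: first quartile when negative (synergy) and third quartile when positive (antagonism).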

O=C(O[C@@H]1Cc2c(O)cc(O)cc2O[C@@H]1c1cc(O)c(O)c(O)c1)c1cc(O)c(O)c(O)c1 [EGCG] + CC1=C\[C@@H](O)CC(=O)Cc2nc(co2)C(=O)N2CCC=C2C(=O)O[C@H](C(C)C)[C@H](C)/C=C/C(=O)NC\C=C\1 [Virginiamycin M1]
Settings | Bliss interaction score
[1] | 0.0619
[2] | 0.119
[3] | -0.092
[4] | 0.0651

fitness
Settings | partner 0.0625 µg/mL | partner 0.125 µg/mL | partner 0.25 µg/mL | partner 0.5 µg/mL | partner 1 µg/mL | partner 2 µg/mL
[5], first compound 6.25 µg/mL | 0.973 | 0.974 | 0.997 | – | – | –
[6], first compound 12.5 µg/mL | 0.86 | 0.931 | 0.686 | – | – | –
[6], first compound 25 µg/mL | 0.859 | ≥ 1 | 0.904 | – | – | –
[6], first compound 50 µg/mL | 0.76 | 0.986 | 0.82 | – | – | –
[7], first compound 12.5 µg/mL | – | – | – | 0.973 | 0.958 | 0.921
[7], first compound 25 µg/mL | – | – | – | ≥ 1 | ≥ 1 | 0.89
[7], first compound 50 µg/mL | – | – | – | 0.965 | 0.946 | 0.889
[8], first compound 12.5 µg/mL | 0.811 | 0.858 | 0.817 | – | – | –
[8], first compound 25 µg/mL | 0.868 | 0.897 | 0.865 | – | – | –
[8], first compound 50 µg/mL | 0.925 | 0.96 | 0.878 | – | – | –

fitness, one replicate
Settings | first compound 12.5 µg/mL | first compound 25 µg/mL | first compound 50 µg/mL
[6], partner 0.5 µg/mL | 0.807 | 0.715 | 0.694
[6], partner 1 µg/mL | 0.67 | 0.65 | 0.543
[7], partner 0.15 µg/mL | 0.891 | 0.872 | 0.883
[7], partner 0.3 µg/mL | 0.823 | 0.847 | 0.842
[8], partner 0.5 µg/mL | 0.678 | 0.728 | 0.682
[8], partner 1 µg/mL | 0.702 | 0.715 | 0.677
[8], partner 2 µg/mL | 0.671 | 0.624 | 0.622

CCC[C@@H]1C[C@@H](C(=O)N[C@@H]([C@H]2O[C@H](SC)[C@H](O)[C@@H](O)[C@H]2O)[C@H](C)Cl)N(C)C1 [Clindamycin] + COc1c(N2C[C@@H]3CCCN[C@@H]3C2)c(F)cc2c(=O)c(C(=O)O)cn(C3CC3)c12 [Moxifloxacin]
Settings | Bliss interaction score
[1] | 0.041
[2] | 0.0751
[3] | 0.0859
[4] | 0.0705

fitness, one replicate
Settings | first compound 0.0039 µg/mL | first compound 0.0078 µg/mL | first compound 0.0156 µg/mL | first compound 0.0312 µg/mL | first compound 0.0625 µg/mL | first compound 0.125 µg/mL
[5], partner 0.0312 µg/mL | 0.73 | 0.575 | 0.5 | – | – | –
[5], partner 0.0625 µg/mL | 0.061 | 0.05 | 0.0579 | – | – | –
[5], partner 0.125 µg/mL | 0.0192 | 0.0118 | 0.0291 | – | – | –
[6], partner 0.06 µg/mL | – | – | – | 0.628 | 0.628 | 0.109
[6], partner 0.12 µg/mL | – | – | – | 0.515 | 0.516 | 0.0784

Settings | fitness
[5], first compound 0.0625 µg/mL, partner 0.0312 µg/mL | 0.0693
[5], first compound 0.0625 µg/mL, partner 0.0625 µg/mL | 0.0631
[5], first compound 0.0625 µg/mL, partner 0.125 µg/mL | 0.046
[5], first compound 0.0625 µg/mL, partner 2 µg/mL | 0.0362
[5], first compound 0.0625 µg/mL, partner 4 µg/mL | 0.0401
[5], first compound 0.0625 µg/mL, partner 8 µg/mL | 0.0456
[5], first compound 0.125 µg/mL, partner 0.0312 µg/mL | 0.0619
[5], first compound 0.125 µg/mL, partner 0.0625 µg/mL | 0.0693
[5], first compound 0.125 µg/mL, partner 0.125 µg/mL | 0.0534
[5], first compound 0.125 µg/mL, partner 2 µg/mL | 0.0368
[5], first compound 0.125 µg/mL, partner 4 µg/mL | 0.0309
[5], first compound 0.125 µg/mL, partner 8 µg/mL | 0.0299
[5], first compound 0.25 µg/mL, partner 0.0312 µg/mL | 0.0478
[5], first compound 0.25 µg/mL, partner 0.0625 µg/mL | 0.0597
[5], first compound 0.25 µg/mL, partner 0.125 µg/mL | 0.0484
[5], first compound 0.25 µg/mL, partner 2 µg/mL | 0.0444
[5], first compound 0.25 µg/mL, partner 4 µg/mL | 0.0401
[5], first compound 0.25 µg/mL, partner 8 µg/mL | 0.0192
[6], first compound 0.0625 µg/mL, partner 0.0075 µg/mL | 0.0874
[6], first compound 0.0625 µg/mL, partner 0.015 µg/mL | 0.0867
[6], first compound 0.125 µg/mL, partner 0.0075 µg/mL | 0.0621
[6], first compound 0.125 µg/mL, partner 0.015 µg/mL | 0.0276
[6], first compound 0.125 µg/mL, partner 0.03 µg/mL | 0.0423
[7], first compound 0.0125 µg/mL, partner 0.0312 µg/mL | 0.182
[7], first compound 0.0125 µg/mL, partner 0.0625 µg/mL | 0.0996
[7], first compound 0.0125 µg/mL, partner 0.125 µg/mL | 0.0702
[7], first compound 0.015 µg/mL, partner 0.005 µg/mL | 0.87
[7], first compound 0.015 µg/mL, partner 0.01 µg/mL | 0.932
[7], first compound 0.015 µg/mL, partner 0.02 µg/mL | 0.88
[7], first compound 0.025 µg/mL, partner 0.0312 µg/mL | 0.13
[7], first compound 0.025 µg/mL, partner 0.0625 µg/mL | 0.107
[7], first compound 0.025 µg/mL, partner 0.125 µg/mL | 0.067
[7], first compound 0.03 µg/mL, partner 0.005 µg/mL | 0.778
[7], first compound 0.03 µg/mL, partner 0.01 µg/mL | 0.798
[7], first compound 0.03 µg/mL, partner 0.02 µg/mL | 0.744
[7], first compound 0.05 µg/mL, partner 0.0312 µg/mL | 0.0658
[7], first compound 0.05 µg/mL, partner 0.0625 µg/mL | 0.0748
[7], first compound 0.05 µg/mL, partner 0.125 µg/mL | 0.0719
[7], first compound 0.06 µg/mL, partner 0.005 µg/mL | 0.627
[7], first compound 0.06 µg/mL, partner 0.01 µg/mL | 0.674
[7], first compound 0.06 µg/mL, partner 0.02 µg/mL | 0.606
[8], first compound 0.0312 µg/mL, partner 0.0075 µg/mL | 0.63
[8], first compound 0.0312 µg/mL, partner 0.015 µg/mL | 0.553
[8], first compound 0.0625 µg/mL, partner 0.015 µg/mL | 0.361
[8], first compound 0.0625 µg/mL, partner 0.03 µg/mL | 0.251
[8], first compound 0.125 µg/mL, partner 0.0075 µg/mL | 0.111
[8], first compound 0.125 µg/mL, partner 0.015 µg/mL | 0.0621
[8], first compound 0.125 µg/mL, partner 0.03 µg/mL | 0.0456
